In patent US7524867B2, “Tetrasubstituted imidazole derivatives as cannabinoid CB1 receptor modulators with a high CB1/CB2 receptor subtype selectivity” (Solvay Pharmaceuticals, B.V., priority 2004, dated 2009):
Like-named read-outs stand apart in the source and are kept apart here.

Assays:
[1] = target: T1, human cannabinoid CB1 receptor (Homo sapiens, UniProt P21554); test: In vitro affinity for cannabinoid-CB1 receptors ([3H]CP-55,940 radioligand binding, CHO cell membranes); conditions: for CB1/CB2 ratio: CB1/CB2 receptor subtype selectivity (affinity ratio; numerically CB2 nM value divided by CB1 nM value)
T1 construct: expressed in transfected cells; host or cells: Chinese hamster ovary (CHO) cells, stably transfected; membrane preparation
T1 sequence (P21554 whole entry): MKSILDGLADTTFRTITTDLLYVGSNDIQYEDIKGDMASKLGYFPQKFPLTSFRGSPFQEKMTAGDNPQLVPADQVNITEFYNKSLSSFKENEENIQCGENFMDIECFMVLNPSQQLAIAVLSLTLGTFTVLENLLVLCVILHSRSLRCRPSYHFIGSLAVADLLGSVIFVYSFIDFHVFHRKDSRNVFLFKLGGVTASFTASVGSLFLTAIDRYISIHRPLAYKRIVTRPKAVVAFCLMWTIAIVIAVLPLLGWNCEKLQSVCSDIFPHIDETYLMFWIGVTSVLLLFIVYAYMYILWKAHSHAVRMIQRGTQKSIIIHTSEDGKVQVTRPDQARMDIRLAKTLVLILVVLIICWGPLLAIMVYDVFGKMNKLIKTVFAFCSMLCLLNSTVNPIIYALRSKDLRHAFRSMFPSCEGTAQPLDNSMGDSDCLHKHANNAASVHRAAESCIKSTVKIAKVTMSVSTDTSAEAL
Experimental: In Vitro Affinity for Cannabinoid-CB1 Receptors
After incubation of a freshly prepared cell membrane preparation with the [^3H]-ligand, with or without addition of compounds of the invention, separation of bound and free ligand is performed by filtration over glassfiber filters. Radioactivity on the filter is measured by liquid scintillation counting.
The affinity of the compounds of the invention for CB1 receptors was determined as described above. […] Pharmacokinetic, pharmacodynamic, and other considerations may alter the dose actually administered to a higher or lower value. The dosage expediently administered is 0.001-1000 mg/kg, preferably 0.1-100 mg/kg of patient's bodyweight.

[2] = target: T2, human cannabinoid CB2 receptor (Homo sapiens, UniProt P34972); test: In vitro affinity for cannabinoid-CB2 receptors ([3H]CP-55,940 radioligand binding, CHO cell membranes); conditions: membranes of CHO cells stably transfected with human CB2, mean of at least three independent experiments
T2 construct: expressed in transfected cells; host or cells: Chinese hamster ovary (CHO) cells, stably transfected; membrane preparation
T2 sequence (P34972 whole entry): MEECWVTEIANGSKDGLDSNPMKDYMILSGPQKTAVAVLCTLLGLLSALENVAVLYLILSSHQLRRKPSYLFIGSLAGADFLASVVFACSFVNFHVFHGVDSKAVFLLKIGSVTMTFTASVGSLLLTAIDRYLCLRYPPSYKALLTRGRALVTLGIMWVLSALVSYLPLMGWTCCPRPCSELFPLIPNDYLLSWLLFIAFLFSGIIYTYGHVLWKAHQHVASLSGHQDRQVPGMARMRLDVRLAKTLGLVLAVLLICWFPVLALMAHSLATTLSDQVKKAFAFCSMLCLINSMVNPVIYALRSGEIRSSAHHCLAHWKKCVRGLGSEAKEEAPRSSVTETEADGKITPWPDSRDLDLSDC
Experimental: In Vitro Affinity for Cannabinoid-CB2 Receptors
The affinity of the compounds of the invention for cannabinoid CB2 receptors can be determined using membrane preparations of Chinese hamster ovary (CHO) cells in which the human cannabinoid CB2 receptor is stably transfected in conjunction with [^3H]CP-55,940 as radioligand. After incubation of a freshly prepared cell membrane preparation with the [^3H]-ligand, with or without addition of compounds of the invention, separation of bound and free ligand is performed by filtration over glassfiber filters. Radioactivity on the filter is measured by liquid scintillation counting.

Row | Structure (SMILES) | melting point [°C] | Ki [1] [nM] | CB1/CB2 ratio [1] | Ki [2] [nM] | Ki ([1]; receptor affinity, membranes of CHO cells stably transfected with human CB1, [3H]CP-55,940, mean of at least three independent experiments, read-out: CB1) [nM]
1 | CSc1c(C(=O)NN2CCCCC2)nc(-c2ccccc2Cl)n1-c1ccc(Cl)cc1 | 192 to 193 |  |  |  | 
2 | CS(=O)(=O)c1c(C(=O)NN2CCCCC2)nc(-c2ccc(Cl)cc2Cl)n1-c1ccc(Cl)cc1 [compound 1, 1-(4-Chlorophenyl)-2-(2,4-dichlorophenyl)-5-methylsulfonyl-N-(piperidin-1-yl)-1H-imidazole-4-carboxamide] |  | 12 | 638 | 7650 | 
3 | CSc1c(C(=O)NN2CCCCC2)nc(-c2ccc(Cl)cc2Cl)n1-c1ccc(Cl)cc1 [compound 6, 1-(4-Chlorophenyl)-2-(2,4-dichlorophenyl)-5-methylsulfanyl-N-(piperdin-1-yl)-1H-imidazole-4-carboxamide] |  |  | 171 | 2060 | 
4 | CSc1c(C(=O)NN2CCCC2)nc(-c2ccc(Cl)cc2Cl)n1-c1ccc(Cl)cc1 [compound 9, 1-(4-chlorophenyl)-2-(2,4-dichlorophenyl)-5-methylsulfanyl-N-(pyrrolidin-1-yl)-1H-imidazole-4-carboxamide] |  | 5 | >200 | > 1000 | 
5 | CSc1c(C(=O)NN2CCCCCC2)nc(-c2ccc(Cl)cc2Cl)n1-c1ccc(Cl)cc1 [compound 10, 1-(4-chlorophenyl)-2-(2,4-dichlorophenyl)-5-methylsulfanyl-N-(azepan-1-yl)-1H-imidazole-4-carboxamide] |  |  | >142 | > 1000 | 7
